Data set [1] deals with Puccinia recondita f. sp. Tritici. Description: Fungicidal activity against Puccinia recondita f. sp. Tritici / wheat / leaf disc preventative (brown rust). The format is in vivo. Conditions: foliar, 200 ppm in the applied formulation, wheat leaf segments cv. Kanzler, inoculated 1 day after application, vs untreated control, read-out: disease control. The essentials: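 Wheat cv. Kanzler leaf segments on agar sprayed with diluted compound, inoculated with brown rust spores 1 day later. Kept at 19° C., 75% rh, 12 h light/dark; percent disease control versus untreated segments scored 7 to 9 days after application, compounds tested at 200 ppm.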

Data set [2] shares this test system. Description: Fungicidal activity against Puccinia recondita f. sp. Tritici / wheat / leaf disc curative (brown rust). The format is in vivo. The conditions noted are these: foliar, 24 h, 200 ppm in the applied formulation, wheat leaf segments cv. Kanzler, applied 1 day after inoculation, vs untreated control, read-out: disease control. The essentials: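 Wheat cv. Kanzler leaf segments on agar were inoculated with fungal spore suspension, held dark at 19° C and 75% RH, then sprayed 1 day later with formulated compound diluted in water. Incubation continued at 19° C, 75% RH, 12 h light/12 h dark; percent disease control versus untreated was scored 6 to 8 days after application.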

The subject of the next data set is Phakopsora pachyrhizi. The data set can be described thus: Fungicidal activity against Phakopsora pachyrhizi / soybean / leaf disc preventative (Asian soybean rust). The format is in vivo. The conditions noted are these: foliar, 200 ppm in the applied formulation, soybean leaf disks, vs untreated control, read-out: disease control. The essentials:
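Soybean leaf discs on water agar sprayed with compound diluted in water, then inoculated with spores on the lower surface one day later. Kept 24-36 h dark, 20 °C, 75% rh, then 12 h light/12 h dark. Percent disease control versus untreated scored 12-14 days after application.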

Data set [3] concerns Glomerella lagenarium (Colletotrichum lagenarium). The data set can be described thus: Fungicidal activity against Glomerella lagenarium (Colletotrichum lagenarium) liquid culture / cucumber / preventative (anthracnose). It counts as cell-based. The conditions noted are these: Colletotrichum orbiculare, 72 h; 20 ppm in the applied formulation; liquid culture (PDB), growth inhibition measured photometrically 3 to 4 days after application; vs untreated control; read-out: disease control. The gist of the method: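 Conidia from cryogenic storage were mixed into potato dextrose broth and added to DMSO solutions of test compound in microtiter plates. Plates were incubated at 24° C. and growth inhibition read photometrically 3 to 4 days after application, as percent antifungal activity versus untreated check.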

For orientation: melting point means the temperature of the solid-liquid transition. As for `CCON=C(C)CNC(=O)c1ccc(-c2noc(C(F)(F)F)n2)cc1` [Compound 1.12, N-(2-ethoxyimino-propyl)-4-[5-(trifluoromethyl)-1,2,4-oxadiazol-3-yl]benzamide], the melting point is 135 to 136 °C. For the same compound, the pest or weed control at 200 ppm in data set [1] is not below 80%. For the same compound, the pest or weed control at 200 ppm in data set [2] was not below 80%. Also, the pest or weed control at 200 ppm in the data set with Phakopsora pachyrhizi is not below 80%. In addition, in data set [3], the inhibition of growth at 20 ppm is not below 80%.
For `CCO/N=C/C(C)NC(=O)c1ccc(-c2noc(C(F)(F)F)n2)cc1` (stereo not drawn) [Compound 1.8, N-[(2E)-2-ethoxyimino-1-methyl-ethyl]-4-[5-(trifluoromethyl)-1,2,4-oxadiazol-3-yl]benzamide], the melting point was in the range of 142 to 143 °C. In data set [1], the pest or weed control at 200 ppm is not below 80%. In addition, the pest or weed control at 200 ppm in data set [2] was not below 80%. For the same compound, the pest or weed control at 200 ppm in the data set with Phakopsora pachyrhizi is not below 80%. In addition, the inhibition of growth at 20 ppm in data set [3] was not below 80%.
Take `CON=CCCNC(=O)c1ccc(-c2noc(C(F)(F)F)n2)cc1` [Compound 1.152, N-(3-methoxyimino-propyl)-4-[5-(trifluoromethyl)-1,2,4-oxadiazol-3-yl]benzamide]: the melting point is 136 to 140 °C. Besides, the pest or weed control at 200 ppm in data set [1] is not below 80%. In addition, the pest or weed control at 200 ppm in data set [2] was not below 80%. Moreover, the pest or weed control at 200 ppm in the data set on Phakopsora pachyrhizi was not below 80%. In addition, the inhibition of growth at 20 ppm in data set [3] is not below 80%.
Turning to `CCON=CCCNC(=O)c1ccc(-c2noc(C(F)(F)F)n2)c(F)c1` [Compound 1.161, N-(3-ethoxyiminopropyl)-3-fluoro-4-[5-(trifluoromethyl)-1,2,4-oxadiazol-3-yl]benzamide], the melting point is 108 to 110 °C. The pest or weed control at 200 ppm in data set [1] was not below 80%. In addition, the pest or weed control at 200 ppm in data set [2] was not below 80%. In the data set with Phakopsora pachyrhizi, the pest or weed control at 200 ppm was not below 80%. In addition, in data set [3], the inhibition of growth at 20 ppm was not below 80%.
The compound `CCON=C(C)CNC(=O)c1ccc(-c2noc(C(F)(F)F)n2)c(F)c1` [Compound 1.165, N-(2-ethoxyiminopropyl)-3-fluoro-4-[5-(trifluoromethyl)-1,2,4-oxadiazol-3-yl]benzamide] registered a melting point of 120 to 124 °C. The pest or weed control at 200 ppm in data set [1] is not below 80%. Further, the pest or weed control at 200 ppm in data set [2] is not below 80%. For the same compound, in the data set on Phakopsora pachyrhizi, the pest or weed control at 200 ppm was not below 80%. Also, the inhibition of growth at 20 ppm in data set [3] is not below 80%.
In turn, `C#CCO/N=C\NC(=O)c1ccc(-c2noc(C(F)(F)F)n2)cc1` [Compound 1.6, N-[(Z)-prop-2-ynoxyimino-methyl]-4-[5-(trifluoromethyl)-1,2,4-oxadiazol-3-yl]benzamide] displayed a melting point of 114 to 119 °C. For the same compound, in data set [1], the pest or weed control at 200 ppm was not below 80%. The pest or weed control at 200 ppm in data set [2] is not below 80%. For the same compound, in the data set on Phakopsora pachyrhizi, the pest or weed control at 200 ppm was not below 80%. Also, the inhibition of growth at 20 ppm in data set [3] was not below 80%.
In turn, `CCO/N=C\C(C)NC(=O)c1ccc(-c2noc(C(F)(F)F)n2)cc1` (stereo not drawn) [Compound 1.9, N-[(2Z)-2-ethoxyimino-1-methyl-ethyl]-4-[5-(trifluoromethyl)-1,2,4-oxadiazol-3-yl]benzamide] registered a melting point of 173 to 174 °C. Also, the pest or weed control at 200 ppm in data set [1] was not below 80%. In addition, the pest or weed control at 200 ppm in data set [2] is not below 80%. Also, in the data set on Phakopsora pachyrhizi, the pest or weed control at 200 ppm was not below 80%. Besides, the inhibition of growth at 20 ppm in data set [3] was not below 80%.
`CON=CC(C)NC(=O)c1ccc(-c2noc(C(F)(F)F)n2)c(F)c1` (stereo not drawn) [Compound 1.159, 3-fluoro-N-(2-methoxyimino-1-methyl-ethyl)-4-[5-(trifluoromethyl)-1,2,4-oxadiazol-3-yl]benzamide] yielded a melting point of 119 to 121 °C. Moreover, the pest or weed control at 200 ppm in data set [1] is not below 80%. Besides, in data set [2], the pest or weed control at 200 ppm was not below 80%. Besides, the pest or weed control at 200 ppm with Phakopsora pachyrhizi was not below 80%. Further, the inhibition of growth at 20 ppm in data set [3] is not below 80%.
In turn, `C#CCO/N=C/CCNC(=O)c1ccc(-c2noc(C(F)(F)F)n2)cc1` [Compound 1.167, N-[(3E)-3-prop-2-ynoxyiminopropyl]-4-[5-(trifluoromethyl)-1,2,4-oxadiazol-3-yl]benzamide] yielded a melting point of 89 to 91 °C. The pest or weed control at 200 ppm in data set [1] was not below 80%. For the same compound, the pest or weed control at 200 ppm in data set [2] is not below 80%. The pest or weed control at 200 ppm with Phakopsora pachyrhizi was not below 80%. In addition, the inhibition of growth at 20 ppm in data set [3] was not below 80%.
In the case of `CCON=C(C)CNC(=O)c1ccc(-c2noc(C(F)(F)F)n2)cc1F` [Compound 1.158, N-(2-ethoxyiminopropyl)-2-fluoro-4-[5-(trifluoromethyl)-1,2,4-oxadiazol-3-yl]benzamide], the melting point was 120 to 122 °C. In addition, the pest or weed control at 200 ppm in data set [1] is not below 80%. Further, the pest or weed control at 200 ppm in data set [2] is not below 80%. Also, in the data set on Phakopsora pachyrhizi, the pest or weed control at 200 ppm is not below 80%. Moreover, the inhibition of growth at 20 ppm in data set [3] is not below 80%.
In turn, `CON=CCCNC(=O)c1ccc(-c2noc(C(F)(F)F)n2)cc1F` [Compound 1.163, 2-fluoro-N-(3-methoxyimino-propyl)-4-[5-(trifluoromethyl)-1,2,4-oxadiazol-3-yl]benzamide] showed a melting point of 98 to 100 °C. Further, the pest or weed control at 200 ppm in data set [1] was not below 80%. Also, the pest or weed control at 200 ppm in data set [2] is not below 80%. Further, the pest or weed control at 200 ppm with Phakopsora pachyrhizi is not below 80%. Also, the inhibition of growth at 20 ppm in data set [3] was not below 80%.
On to `CON=C(C)CNC(=O)c1ccc(-c2noc(C(F)(F)F)n2)c(F)c1` [Compound 1.164, 3-fluoro-N-(2-methoxyimino-propyl)-4-[5-(trifluoromethyl)-1,2,4-oxadiazol-3-yl]benzamide], for which the melting point was in the range of 131 to 134 °C. For the same compound, the pest or weed control at 200 ppm in data set [1] was not below 80%. Further, in data set [2], the pest or weed control at 200 ppm was not below 80%. For the same compound, the pest or weed control at 200 ppm with Phakopsora pachyrhizi is not below 80%. Moreover, in data set [3], the inhibition of growth at 20 ppm is not below 80%.
The compound `CON=CC(C)NC(=O)c1ccc(-c2noc(C(F)(F)F)n2)cc1` (stereo not drawn) [Compound 1.3, N-(2-methoxyimino-1-methyl-ethyl)-4-[5-(trifluoromethyl)-1,2,4-oxadiazol-3-yl]benzamide] yielded a melting point of 164 to 165 °C. Besides, the pest or weed control at 200 ppm in data set [1] is not below 80%. Also, the pest or weed control at 200 ppm in data set [2] is not below 80%. The pest or weed control at 200 ppm in the data set with Phakopsora pachyrhizi was not below 80%. In addition, the inhibition of growth at 20 ppm in data set [3] is not below 80%.
`CO/N=C(/C)CNC(=O)c1ccc(-c2noc(C(F)(F)F)n2)cc1` [Compound 1.14, N-[(2Z)-2-methoxyimino-propyl]-4-[5-(trifluoromethyl)-1,2,4-oxadiazol-3-yl]benzamide] displayed a melting point of 151 to 152 °C. In data set [1], the pest or weed control at 200 ppm is not below 80%. The pest or weed control at 200 ppm in data set [2] was not below 80%. Besides, the pest or weed control at 200 ppm in the data set with Phakopsora pachyrhizi was not below 80%. In data set [3], the inhibition of growth at 20 ppm was not below 80%.
The compound `CC(CNC(=O)c1ccc(-c2noc(C(F)(F)F)n2)cc1)=NOCCF` [Compound 1.151, N-[2-(2-fluoroethoxyimino)propyl]-4-[5-(trifluoromethyl)-1,2,4-oxadiazol-3-yl]benzamide] yielded a melting point of 133 to 134 °C. Further, in data set [1], the pest or weed control at 200 ppm is not below 80%. The pest or weed control at 200 ppm in data set [2] is not below 80%. Moreover, the pest or weed control at 200 ppm in the data set with Phakopsora pachyrhizi was not below 80%. For the same compound, in data set [3], the inhibition of growth at 20 ppm was not below 80%.
As for `CON=C(C)CNC(=O)c1ccc(-c2noc(C(F)(F)F)n2)cc1F` [Compound 1.157, 2-fluoro-N-(2-methoxyimino-propyl)-4-[5-(trifluoromethyl)-1,2,4-oxadiazol-3-yl]benzamide], the melting point lay within 122 to 124 °C. In data set [1], the pest or weed control at 200 ppm is not below 80%. Besides, the pest or weed control at 200 ppm in data set [2] was not below 80%. In addition, the pest or weed control at 200 ppm in the data set with Phakopsora pachyrhizi was not below 80%. Further, the inhibition of growth at 20 ppm in data set [3] is not below 80%.
The compound `CCON=CCCNC(=O)c1ccc(-c2noc(C(F)(F)F)n2)cc1F` [Compound 1.162, N-(3-ethoxyiminopropyl)-2-fluoro-4-[5-(trifluoromethyl)-1,2,4-oxadiazol-3-yl]benzamide] had a melting point of 97 to 99 °C. Also, the pest or weed control at 200 ppm in data set [1] was not below 80%. In addition, the pest or weed control at 200 ppm in data set [2] was not below 80%. Moreover, the pest or weed control at 200 ppm in the data set on Phakopsora pachyrhizi was not below 80%. Besides, in data set [3], the inhibition of growth at 20 ppm was not below 80%.
`CC(C)ON=CCCNC(=O)c1ccc(-c2noc(C(F)(F)F)n2)cc1` [Compound 1.168, N-(3-isopropoxyimino-propyl)-4-[5-(trifluoromethyl)-1,2,4-oxadiazol-3-yl]benzamide] came in with a melting point of 122 to 124 °C. The pest or weed control at 200 ppm in data set [1] was not below 80%. In addition, the pest or weed control at 200 ppm in data set [2] is not below 80%. Further, the pest or weed control at 200 ppm in the data set on Phakopsora pachyrhizi was not below 80%. Moreover, in data set [3], the inhibition of growth at 20 ppm is not below 80%.

The record behind these values is patent US11192867B2, “Microbiocidal oxadiazole derivatives” (SYNGENTA PARTICIPATIONS AG, priority 2016, dated 2021).
